{"source": "ChEMBL document CHEMBL1201862", "about": "“PubChem BioAssay data set” (2004)", "key": {"Cytochrome P450 3A4": {"biological_target": "Cytochrome P450 3A4 (Homo sapiens, UniProt P08684)", "sequence (P08684 whole entry)": "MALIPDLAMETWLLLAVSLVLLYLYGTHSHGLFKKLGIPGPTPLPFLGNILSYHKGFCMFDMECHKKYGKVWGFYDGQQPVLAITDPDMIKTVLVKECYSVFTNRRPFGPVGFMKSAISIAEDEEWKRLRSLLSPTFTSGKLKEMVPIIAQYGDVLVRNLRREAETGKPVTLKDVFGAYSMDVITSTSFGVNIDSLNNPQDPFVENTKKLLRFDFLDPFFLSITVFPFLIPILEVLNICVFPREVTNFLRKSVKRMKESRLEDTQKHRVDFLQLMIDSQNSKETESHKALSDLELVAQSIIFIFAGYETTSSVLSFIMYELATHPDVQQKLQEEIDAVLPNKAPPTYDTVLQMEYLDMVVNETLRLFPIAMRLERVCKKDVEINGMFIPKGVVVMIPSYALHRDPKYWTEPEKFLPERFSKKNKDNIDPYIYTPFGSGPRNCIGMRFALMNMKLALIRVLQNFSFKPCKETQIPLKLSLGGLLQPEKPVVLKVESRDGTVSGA"}, "Cytochrome P450 2C9": {"biological_target": "Cytochrome P450 2C9 (Homo sapiens, UniProt P11712)", "sequence (P11712 whole entry)": "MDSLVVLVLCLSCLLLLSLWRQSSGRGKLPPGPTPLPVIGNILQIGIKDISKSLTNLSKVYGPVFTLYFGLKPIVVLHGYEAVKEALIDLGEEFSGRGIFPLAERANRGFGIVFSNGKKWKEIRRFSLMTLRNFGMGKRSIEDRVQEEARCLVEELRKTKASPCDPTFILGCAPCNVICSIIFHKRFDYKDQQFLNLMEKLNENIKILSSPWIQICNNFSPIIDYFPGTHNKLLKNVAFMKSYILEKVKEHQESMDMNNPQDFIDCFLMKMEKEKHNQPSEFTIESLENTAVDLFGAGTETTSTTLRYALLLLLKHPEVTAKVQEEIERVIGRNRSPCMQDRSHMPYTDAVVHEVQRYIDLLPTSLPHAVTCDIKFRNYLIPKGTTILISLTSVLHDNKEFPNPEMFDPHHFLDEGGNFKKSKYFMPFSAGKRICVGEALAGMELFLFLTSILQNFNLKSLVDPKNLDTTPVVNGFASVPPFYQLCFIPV"}, "H9c2": {"test_system": "H9c2", "test": "cells", "assay_type": "functional, cell-based", "conditions": "Rattus norvegicus, H9c2, Myocardium"}, "[1]": {"test_system": "Streptococcus sp. 'group A'", "test": "growth inhibition of control SK(-) GAS strain, dose response, counter-screen for streptokinase expression inhibitor project, luminescence, kanamycin, BacTiterGlo, confirmation (AID 1900)", "assay_type": "functional, organism-based"}, "Streptococcus": {"test_system": "Streptococcus", "test": "Group A Streptococcus viability loss, dose response, counter-screen for streptokinase expression inhibitor project, luminescence, BacTiterGlo (AID 1915);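 also: potency for reduction of bacterial viability or growth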", "assay_type": "functional, organism-based"}, "Streptokinase A": {"biological_target": "T1, Streptokinase A (Streptococcus pyogenes serotype M1, UniProt P10520)", "T1 sequence (P10520 whole entry)": "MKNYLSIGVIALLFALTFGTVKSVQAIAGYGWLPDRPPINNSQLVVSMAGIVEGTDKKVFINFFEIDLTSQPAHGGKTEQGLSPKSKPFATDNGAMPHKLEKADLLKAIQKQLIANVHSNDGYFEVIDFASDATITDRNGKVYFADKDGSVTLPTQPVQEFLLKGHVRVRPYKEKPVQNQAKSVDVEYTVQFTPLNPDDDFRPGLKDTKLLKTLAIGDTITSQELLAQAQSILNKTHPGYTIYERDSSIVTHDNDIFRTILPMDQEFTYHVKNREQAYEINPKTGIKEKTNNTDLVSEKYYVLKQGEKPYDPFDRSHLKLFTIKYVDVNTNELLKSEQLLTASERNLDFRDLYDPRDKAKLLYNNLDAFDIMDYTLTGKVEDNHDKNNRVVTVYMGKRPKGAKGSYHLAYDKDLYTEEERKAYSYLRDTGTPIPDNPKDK", "test": "S. pyogenes streptokinase expression inhibitors, potency, dose response, plasminogen activation absorbance, OD405 (AID 1914);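 also: secreted streptokinase activity via plasminogen activation per viability signal from cell pellet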", "assay_type": "functional, Streptococcus pyogenes M1 GAS"}, "Cytochrome P450 2C19": {"biological_target": "Cytochrome P450 2C19 (Homo sapiens, UniProt P33261)", "sequence (P33261 whole entry)": "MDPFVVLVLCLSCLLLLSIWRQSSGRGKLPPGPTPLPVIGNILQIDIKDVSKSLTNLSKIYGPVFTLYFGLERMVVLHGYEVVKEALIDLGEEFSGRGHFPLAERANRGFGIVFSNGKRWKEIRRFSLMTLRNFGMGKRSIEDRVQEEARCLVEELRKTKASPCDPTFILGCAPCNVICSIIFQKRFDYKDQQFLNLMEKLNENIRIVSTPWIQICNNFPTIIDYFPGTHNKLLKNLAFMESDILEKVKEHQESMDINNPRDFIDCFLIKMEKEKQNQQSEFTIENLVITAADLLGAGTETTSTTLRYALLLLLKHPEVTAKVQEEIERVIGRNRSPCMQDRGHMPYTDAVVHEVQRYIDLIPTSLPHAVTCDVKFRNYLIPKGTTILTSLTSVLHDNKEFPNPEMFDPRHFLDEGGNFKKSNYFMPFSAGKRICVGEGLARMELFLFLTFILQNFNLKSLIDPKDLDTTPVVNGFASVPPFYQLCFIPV", "test": "Cytochrome panel assay with activity outcomes. Panel member name: p450-cyp2c19 Compounds with AC50 equal or less than 10 uM are considered active", "assay_type": "functional", "conditions": "read-out: AC50"}, "[2]": {"biological_target": "T2, Rac GTPase-activating protein 1 (Homo sapiens, UniProt Q9H0H5)", "T2 sequence (Q9H0H5 whole entry)": "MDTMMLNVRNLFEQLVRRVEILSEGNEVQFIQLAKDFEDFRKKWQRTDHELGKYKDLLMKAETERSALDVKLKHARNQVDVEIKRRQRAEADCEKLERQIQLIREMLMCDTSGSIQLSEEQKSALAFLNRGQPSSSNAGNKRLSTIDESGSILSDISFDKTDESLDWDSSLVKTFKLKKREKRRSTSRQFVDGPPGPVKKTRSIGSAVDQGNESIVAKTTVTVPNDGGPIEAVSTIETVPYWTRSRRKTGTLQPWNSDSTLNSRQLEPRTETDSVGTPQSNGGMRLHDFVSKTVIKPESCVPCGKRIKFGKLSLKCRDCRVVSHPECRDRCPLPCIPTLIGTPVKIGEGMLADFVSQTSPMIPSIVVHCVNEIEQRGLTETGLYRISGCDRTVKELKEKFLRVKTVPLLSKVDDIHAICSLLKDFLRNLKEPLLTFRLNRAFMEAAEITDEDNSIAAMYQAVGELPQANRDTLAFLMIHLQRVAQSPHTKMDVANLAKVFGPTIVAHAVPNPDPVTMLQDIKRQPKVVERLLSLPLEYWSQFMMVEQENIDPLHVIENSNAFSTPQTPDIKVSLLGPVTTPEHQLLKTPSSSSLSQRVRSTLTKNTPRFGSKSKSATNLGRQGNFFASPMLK", "test": "MgcRacGAP GTPase-activating activity inhibitors, confirmation, biochemical, ADP Hunter fluorescence, primary and confirmatory (AID 624330)", "assay_type": "functional"}, "INS1": {"test_system": "INS1", "test": "beta cell apoptosis inhibitors, cytokine rescue, dose response, luminescence, retest (AID 449756);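 also: cell death triggered by IL-1 beta plus TNF-alpha plus IFN-gamma mixture; protective hits raise ATP signal compared with cytokine alone wells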", "assay_type": "functional, cell-based", "conditions": "Rattus norvegicus"}}, "note": "“And” between values parts separate entries of the source, which are not always exact repeats. Identical values can stand only once. The source made the active and inactive calls.", "data": [{"smiles": "COC(=O)[C@H]1[C@H](c2ccccc2)C(=O)[C@@]2(O)c3ccccc3O[C@@]12c1ccccc1", "values": [{"measurement": "AC50", "setting": "Cytochrome P450 3A4", "result": "3.16 µM (inconclusive)"}, {"measurement": "AC50", "setting": "Cytochrome P450 2C9", "result": "6.31 µM (inconclusive)"}]}, {"smiles": "O=C(Nc1cccc(-c2nc3cccnc3s2)c1)c1ccco1", "values": [{"measurement": "IC50", "setting": "H9c2", "result": "> 79 µM (inactive)"}]}, {"smiles": "Cc1cc(Oc2cnn(C(C)(C)C)c(=O)c2Cl)cc(C(C)C)c1", "values": [{"measurement": "EC50", "setting": "[1]", "result": "6.31 µM (active)"}, {"measurement": "EC50", "setting": "Streptococcus", "result": "12.6 µM (active)"}, {"measurement": "EC50", "setting": "Streptokinase A", "result": "9.54 µM (active)"}]}, {"smiles": "CC(=O)Nc1ccc(S(=O)(=O)NCC2CCC(C(=O)N3CCN(c4ccccn4)CC3)CC2)cc1", "note": "(stereo not given)", "values": [{"measurement": "AC50", "setting": "Cytochrome P450 2C9", "result": "3.98 µM (inconclusive)"}, {"measurement": "AC50", "setting": "Cytochrome P450 2C19", "result": "10 µM (inconclusive)"}]}, {"smiles": "O=C1c2ccccc2CC1(Cc1ccccc1)Cc1ccccc1", "values": [{"measurement": "EC50", "setting": "[1]", "result": "6.04 µM (active)"}, {"measurement": "EC50", "setting": "Streptococcus", "result": "> 150 µM (not active)"}, {"measurement": "EC50", "setting": "Streptokinase A", "result": "12.9 µM (active)"}]}, {"smiles": "C/C(CCN1CCc2nc(-c3ccccc3)c(-c3ccccc3)cc2C1)=N\\O[C@@H](C)c1cn([C@H](CO)Cc2ccccc2)nn1", "values": [{"measurement": "AC50", "setting": "Cytochrome P450 3A4", "result": "3.98 µM (inconclusive) and 3.16 µM (inconclusive)"}]}, {"smiles": "CCOc1ccc(NC(=O)c2cc3c(=O)n(C)c4ccccc4c3n2C)cc1", "values": [{"measurement": "IC50", "setting": "H9c2", "result": "> 79 µM (inactive)"}]}, {"smiles": "Cc1nc2cnc(N(C)C)nc2n(CCc2ccccc2)c1=O", "values": [{"measurement": "AC50", "setting": "Cytochrome P450 3A4", "result": "31.6 µM (inconclusive)"}]}, {"smiles": "NCC[Se][Se]CCN", "values": [{"measurement": "AC50", "setting": "Cytochrome P450 2C9", "result": "0.316 µM (inconclusive)"}]}, {"smiles": "COc1cc(/C=C/C(=O)OCC(=O)NC(=O)NC(C)C)ccc1O", "values": [{"measurement": "IC50", "setting": "[2]", "result": "47.7 µM (active)"}]}, {"smiles": "O=c1cnc2cnc(Nc3ccccc3)nc2n1Cc1ccc(F)cc1", "values": [{"measurement": "AC50", "setting": "Cytochrome P450 2C9", "result": "7.94 µM (inconclusive)"}]}, {"smiles": "c1ccc2sc(NC3=NCN(C4CCCCCC4)CN3)nc2c1", "values": [{"measurement": "AC50", "setting": "Cytochrome P450 3A4", "result": "7.94 µM (inconclusive)"}, {"measurement": "AC50", "setting": "Cytochrome P450 2C9", "result": "39.8 µM (inconclusive)"}]}, {"smiles": "CC(C)CC(=O)Nc1ccc2c(c1)oc1ccccc12", "values": [{"measurement": "AC50", "setting": "Cytochrome P450 2C9", "result": "8.91 µM (inconclusive)"}, {"measurement": "AC50", "setting": "Cytochrome P450 2C19", "result": "2.82 µM (inconclusive)"}]}, {"smiles": "CCCn1nc(C(=O)OCC(=O)c2c(N)n(C)c(=O)n(C)c2=O)c2ccccc2c1=O", "values": [{"measurement": "IC50", "setting": "H9c2", "result": "17.1 µM (active)"}]}, {"smiles": "CCOC(=O)c1c(NC(C)=O)sc2c(OC)cccc12", "values": [{"measurement": "AC50", "setting": "Cytochrome P450 2C9", "result": "5.01 µM (inconclusive)"}]}, {"smiles": "COc1ccc(CC(=O)N(Cc2ccccc2)c2ccccc2)cc1S(=O)(=O)N1CCOCC1", "values": [{"measurement": "IC50", "setting": "H9c2", "result": "70.9 µM (inactive)"}]}, {"smiles": "COc1cc(OC)c(Cl)cc1N", "values": [{"measurement": "IC50", "setting": "[2]", "result": "35.9 µM (active)"}]}, {"smiles": "CC(C)CN1CC[C@@]2(CCCN(S(=O)(=O)c3ccccc3)C2)C1", "values": [{"measurement": "AC50", "setting": "Cytochrome P450 3A4", "result": "5.01 µM (inconclusive)"}]}, {"smiles": "CCCCn1cc[n+](C2=C([N-]S(=O)(=O)c3ccc(Cl)cc3)C(=O)c3ccccc3C2=O)c1", "values": [{"measurement": "AC50", "setting": "INS1", "result": "4.18 µM (active)"}]}, {"smiles": "COc1cccc(OCC(O)CN2CCN(C)CC2)c1", "note": "(stereo not given)", "values": [{"measurement": "IC50", "setting": "[2]", "result": "74.6 µM (active)"}]}, {"smiles": "OC(CNC1CCCCC1)COCCOc1ccc(Br)cc1", "note": "(stereo not given)", "values": [{"measurement": "AC50", "setting": "INS1", "result": "61.9 µM (active)"}]}, {"smiles": "O=C(CCc1nc(O)c2ccccc2n1)OCCOc1ccc(Cl)cc1", "values": [{"measurement": "IC50", "setting": "H9c2", "result": "> 79 µM (inactive)"}]}, {"smiles": "Fc1ccc(CNCCc2ccccc2)cc1", "values": [{"measurement": "IC50", "setting": "[2]", "result": "249 µM (active)"}]}, {"smiles": "O=C(OCC(=O)c1cccs1)c1cccc(C(=O)OCC(=O)c2cccs2)n1", "values": [{"measurement": "AC50", "setting": "Cytochrome P450 3A4", "result": "35.5 µM (inconclusive)"}]}, {"smiles": "CCc1cc[n+](C2=Nc3ccccc3[N-]C2=C(C#N)C#N)cc1", "values": [{"measurement": "AC50", "setting": "Cytochrome P450 3A4", "result": "15.8 µM (inconclusive)"}, {"measurement": "AC50", "setting": "Cytochrome P450 2C9", "result": "14.1 µM (inconclusive)"}, {"measurement": "AC50", "setting": "Cytochrome P450 2C19", "result": "25.1 µM (inconclusive)"}]}]}
